Consider 1 molecule from patent US20240207240A1, “Method for Improving or Treating Cognitive Dysfunction Complicating HIV-associated Cryptococcal Meningitis with Lenalidomide” (The First Affiliated Hospital Zhejiang University School of …, priority 2022, published 2024).

Series [1] relates to patients with cognitive dysfunction caused by HIV-associated CM-IRIS. The class given is in vivo, human. As to conditions: for ΔMoCA: week 24 - week 0, median.
The nature of series [2]: withdrawal for adverse event in the lenalidomide treatment cohort. As to conditions: of 8 patients with cognitive dysfunction at enrollment. The class given is in vivo, human. The protocol: Screening process: 14 patients were included in the lenalidomide treatment cohort based on the inclusion and exclusion criteria: 8 had cognitive dysfunction at the time of enrollment. Among them, one patient withdrew from the study due to skin allergy, so only 7 patients were followed up for 24 weeks.
Lenalidomide Treatment: Patients were treated with six cycles of lenalidomide (one cycle: […] for 3 weeks, followed by 1 week ceased lenalidomide) when they were enrolled. The drug was stopped at the end of 6 cycles.

For series [3], the system named is patients with cognitive dysfunction caused by HIV-associated CM-IRIS. Briefly: overall cognitive status by MoCA and IHDS scales. As to conditions: of 7 patients treated with lenalidomide. Type of series: in vivo, human. The protocol:
FIGS. 2A and 2B show results of treating patients with HIV-associated CM who still develop cognitive dysfunction after completing the anti-cryptococcal induction treatment. The patients are treated with lenalidomide. In the treatment, lenalidomide is administered at 25 mg/day for immuno-modulation for a total of 6 treatment cycles, with each cycle including 21 days of lenalidomide administration followed by 7 days of no lenalidomide. The patients are further assigned to a cognitive improvement group and a cognitive non-improvement group. […] FIG. 2A compares CSF biochemistry in the cognitive improvement group and cognitive non-improvement group before and after treatment.
Definition of cognitive dysfunction: The Chinese version of the Montreal Cognitive Assessment (MoCA) shown in Table 1, International HIV Dementia Scale (IHDS) shown in Table 2, and Center for Epidemiological Research Depression Scale (CES-D) are used to assess patients' cognitive status. They all use Chinese questionnaires that have been validated for the evaluation of Chinese patients. The MoCA tests eight major neurocognitive domains, including short-term memory recall (no score), visuospatial ability, naming, attention, language, conceptual thinking, working memory, and orientation of time and place. […]

The conditions of series [4]: cited from earlier work.

Where “and” joins values, the source holds several entries; their conditions need not be identical. Equal values may be shown once. Read-outs that look alike come from different tables or passages of the source.

As for `Nc1cccc2c1CN(C1CCC(=O)NC1=O)C2=O` (stereo not drawn) [lenalidomide], in series [1] (W24, after 6 cycles lenalidomide 25 mg/day (21 days on, 7 off), 7 patients, baseline 23.0 (13.0-24.0), P=0.018), the “median MoCA score” value is recorded as 26.0 (24.0-28.0). Besides, the “memory score in the MoCA” value in series [1] (W24, baseline 1.0 (0-3.0), P=0.026) was 4.0 (3.0-5.0). Moreover, the “MoCA-W 24” value in series [1] (individual Patients 1-4 (cognitive improvement group)) was 30 scores and 26 scores (2×) and 28 scores; in series [1] (individual Patients 5-7 (cognitive non-improvement group)), 24 scores and 25 scores and 19 scores. Besides, the figures for the ΔMoCA in series [1] (CI group) and in series [1] (CNI group) were 8.5 scores and 1.0 scores, respectively. Moreover, the “patients withdrawn from the study due to skin allergy” value in series [2] is reported as “one”. Further, the “patients whose cognitive status returned to normal” value in series [3] turned out to be 4 patients. Besides, the bioavailability entry in series [4] is listed as “high”.
